# Values of other authors, collected in patent US20160032347A1, “NOVEL METHOD AND DEVICE FOR WHOLE-CELL BACTERIAL BIO-CAPACITOR CHIP FOR DETECTING CELLULAR STRESS INDUCED BY TOXIC CHEMICALS” (Sabanci Universitesi, priority 2011, published 2016).
# Tested on: E. coli
# Conditions: previous studies; ~6.5%
smiles,measurement,value
"[Cl-].[Na+] [NaCl, sodium chloride]",salt tolerance level reported for E. coli,up to 1.1 M
